Tests used:
Format in all cases: in vivo
[1] = test system: rats (male and female); test: Single dose (acute) toxicity study in rats
Protocol: The single-dose (acute) toxicity study was carried out with different groups of rats and mice (male and female) and according to the procedures recommended by OECD (2001) and ANVISA (2013).
After a 6 h-fasting period, the animals' body weight was determined, and the dose of the synthetic CBD was calculated. Two single doses (1000 and 2000 mg/kg) of synthetic CBD were administered orally (with the aid of a gavage probe) and intraperitoneally in different groups of rats and mice (male and female). Other different groups of rodents were treated with placebo and were considered as control groups.
The animals were carefully observed for any toxicity signs within the first eight hours after treatment, and daily for a period of 14 days. On the 15th day all animals were euthanized, and the respective anatomopathological investigations were performed on the 15th day after the treatments.

[2] = test system: rats with MPTP microinfusion into the substantia nigra; test: Open field test (motor activity), MPTP model; conditions: oral
Protocol: The number of animals per group was ten (10) subjects. This number was estimated based on internationally recognized and scientifically validated protocols. The doses of the CBD-SINT formulation were determined by allometric extrapolation from the average dose used in human patients (600 mg/day, which in a 70 kg individual represents approximately 9 mg/kg), obtaining an average dose of ˜36 mg/kg CBD in rats.
For the calculation of the three doses, the intermediate dose was used as a reference, and then a higher and a lower dose was stipulated on a logarithmic scale. To stipulate the lowest dose, ⅓ of the median dose was used. For the higher dose, a safety factor of 10 times the lower dose was used. Thus, the doses of CBD-SINT used in this trial were: 12, 36 and 120 mg/kg. […]
CBD-SINT and placebo were administered orally (gavage) for 18 days prior to the administration of the neurotoxin by stereotactic surgery, and for another 10 days after surgery. After the administration of the neurotoxin, the behavioral (locomotor activity) and biochemical (brain dopamine dosage) parameters were evaluated after 24 hours and after 10 days. […]
The animals were placed on the central circle of the open field and its behavior evaluated for 5 minutes. […] Each animal was assessed individually, and the device was cleaned between animals with 5% alcohol solution (FIG. 15).

[3] = test system: rats with 6-OHDA microinfusion into the substantia nigra; test: Morris water maze (cued test/memory version), 6-OHDA model; conditions: 6-OHDA rats, 36 or 120 mg/kg orally, day 18 to day 28
Protocol: For the experiments with 6-OHDA, the animals were divided into the following groups: • 6-OHDA+placebo • 6-OHDA+CBD-SINT 12 mg/kg • 6-OHDA+CBD-SINT 36 mg/kg • 6-OHDA+CBD-SINT 120 mg/kg • Sham+placebo • Naive
After the recovery period, CBD-SINT and placebo were administered orally (gavage) for 28 days. Locomotor activity tests were performed only at the end of treatments (day 28). The memory tests (Morris water maze) were performed daily from day 18 to day 28 (FIG. 14).
The rats were submitted to stereotactic surgery (stereotactic—David Kopf, model 957L) and received bilateral microinfusion of MPTP or 6-OHDA (different groups of rats) directly into the substantia nigra. For surgery, the following stereotaxic coordinates were used: anteroposterior: 5.0 mm from the bregma; mediolateral: ±2.1 mm from the midline and dorsoventral: −7.7 mm from the cranial vault (Paxinos and Watson, 1986). Then, 100 μg MPTP (diluted in 1 μL saline, with a flow of 0.33 μL/min) or 8 μg 6-OHDA (diluted in 2 μL saline with 0.2 μg/μL ascorbic acid, with a flow rate of 0.33 μL/min) were injected. […]
The animals were subjected to the same procedure until the four starting points are completed. […] The latency (time it takes the animals to find the platform) and the speed of the animals were quantified by the 2020 Plus Tracking System software.

[4] = 1000 mg/kg and 2000 mg/kg intraperitoneally, single dose

**Q.** Which results are given for `C=C(C)[C@@H]1CCC(C)=C[C@H]1c1c(O)cc(CCCCC)cc1O` [CBD-SINT, Cannabidiol]?
**A.** abdominal contortions during the first 8 hours [1, 4]: occasional abdominal contortions; activity during the first 8 hours of observation [1, 4]: significant decrease in its activity; daily feed and water consumption compared to placebo ([1]; 1000 and 2000 mg/kg, oral or intraperitoneal): no change; final body weight and body weight gains vs placebo ([1]; 1000 and 2000 mg/kg, oral or intraperitoneal, 14 days): similar; appearance and general behavior pattern until the end of the 14-days observation ([1]; 1000 and 2000 mg/kg, oral or intraperitoneal, after the first 8 h): no significant changes; absolute (g) or relative (%) weight of all organs vs placebo ([1]; after 14 days): no significant differences; histopathological analyzes ([1]; day 15): no significant changes; macroscopic examination of vital organs ([1]; day 15): did not disclose any abnormalities; deaths (LD50 not set forth) ([1]; doses up to 2000 mg/kg orally or intraperitoneally, 14 days): no deaths were observed; latency time and frequency of standing compared to CBD-FITO in the same concentration [2]: a lower concentration had a more effective result; latency time to find the platform (memory deficit) [3]: did not show this deficit

Source: patent US11389423B2, “Pharmaceutical composition, excipient for the composition and use of the composition” (priority 2018, dated 2022)
